pIC50: −log10 of the molar value. Counter-ions that a name gives are not always drawn. Like-named read-outs stand apart in the source and are kept apart here. Each block holds one compound with its values, some of them ahead of it.
Columns and labels:
[1] = system: young female PDAPP mice; experiment: In Vivo Inhibition of Beta-Secretase (brain Abeta 1-x reduction); parameters: species or system mouse; conditions: for CNS penetration: inferred from brain Abeta lowering after oral dose; for Abeta 1-x peptide levels reduced in brain cortex / Abeta 1-x peptide levels reduced in brain hippocampus: 3 hours after administration, compared to vehicle-treated mice
Description: Several animal models, including mouse, guinea pig, dog, and monkey, may be used to screen for inhibition of beta-secretase activity in vivo following compound treatment Animals used in this invention can be wild type, transgenic, or gene knockout animals. For example, the PDAPP mouse model, prepared as described in Games et al., Nature 373, 523-527 (1995), and other non-transgenic or gene knockout animals are useful to analyze in vivo inhibition of Abeta and sAPPbeta production in the presence of inhibitory compounds. Generally, 2 to 12 month old PDAPP mice, gene knockout mice or non-transgenic animals are administered compound formulated in vehicles, such as corn oil, cyclodextran, phosphate buffers, […]®, or other suitable vehicles. One to twenty-four hours following the administration of compound, animals are sacrificed, and brains as well as cerebrospinal fluid and plasma are removed for analysis of Abetas, C99, and sAPP fragments. (See May, et al., Journal of Neuroscience, 31, 16507-16516 (2011)). For standard in vivo pharmacology studies, animals are dosed with various concentrations of compound and compared to a vehicle-treated control group dosed at the same time. For some time course studies, brain tissue, plasma, or cerebrospinal fluid is obtained from selected animals, beginning at time 0 to establish a baseline. Compound or appropriate vehicle is administered to other groups and sacrificed at various times after dosing. Brain tissue, plasma, or cerebrospinal fluid is obtained from selected animals and analyzed for the presence of APP cleavage products, including Abeta peptides, sAPPbeta, and other APP fragments, for example, by specific sandwich ELISA assays. At the end of the test period, animals are sacrificed and brain tissues, plasma, or cerebrospinal fluid are analyzed for the presence of Abeta peptides, C99, and sAPPbeta, as appropriate. Brain tissues of APP transgenic animals may also be analyzed for the amount of beta-amyloid plaques following compound treatment. “Abeta 1-x peptide” as used herein refers to the sum of Abeta species that begin with […]-terminus greater than residue 28. This detects the majority of Abeta species and is often called “total Abeta”.

[2] = target: human BACE1(1-460):Fc (Homo sapiens (Human), UniProt P56817); experiment: BACE1 FRET Assay; assay type: biochemical; conditions: purified recombinant huBACE1:Fc, FRET substrate, pH 4.6; Mean ± SEM
[3] = system: primary cortical neurons from PDAPP transgenic embryonic mice; experiment: PDAPP Primary Neuronal Assay (Abeta ELISA); assay type: cell-based; conditions: Mus musculus, Primary cortical neuron, 24 h, Mean ± SEM

human BACE1(1-460):Fc, sequence (P56817 22-460): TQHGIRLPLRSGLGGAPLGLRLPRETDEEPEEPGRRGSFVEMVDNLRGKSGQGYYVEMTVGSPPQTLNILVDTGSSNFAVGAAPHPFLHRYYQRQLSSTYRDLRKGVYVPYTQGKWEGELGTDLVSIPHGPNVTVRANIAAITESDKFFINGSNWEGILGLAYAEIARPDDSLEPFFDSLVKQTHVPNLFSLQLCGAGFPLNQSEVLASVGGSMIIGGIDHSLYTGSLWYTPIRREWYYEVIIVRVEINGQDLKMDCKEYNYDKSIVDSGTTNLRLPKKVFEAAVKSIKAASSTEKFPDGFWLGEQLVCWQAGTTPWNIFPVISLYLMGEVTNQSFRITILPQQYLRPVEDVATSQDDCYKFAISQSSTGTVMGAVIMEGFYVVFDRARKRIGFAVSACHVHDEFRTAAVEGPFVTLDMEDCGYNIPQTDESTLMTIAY

CNS penetration [1]: demonstrate CNS penetration | pIC50 [2]: 9.21
Structure (SMILES): Cl.NC1=N[C@@]2(c3cccc(NC(=O)c4ccc(F)cn4)c3)CN(c3ncc(F)cn3)C[C@H]2CS1 [Example 1, N-{3-[(4aR,7aS)-2-Amino-6-(5-fluoropyrimidin-2-yl)-4a,5,6,7-tetrahydropyrrolo[3,4-d][1,3]thiazin-7a(4H)-yl]phenyl}-5-fluoropyridine-2-carboxamide hydrochloride]

CNS penetration [1]: demonstrate CNS penetration
Structure (SMILES): COc1cnc(C(=O)Nc2ccc(F)c([C@]34CN(c5ncc(F)cn5)C[C@H]3CSC(N)=N4)c2)cn1.Cl [Example 4, N-[3-[(4aR,7aS)-2-Amino-6-(5-fluoropyrimidin-2-yl)-4,4a,5,7-tetrahydropyrrolo[3,4-d][1,3]thiazin-7a-yl]-4-fluoro-phenyl]-5-methoxy-pyrazine-2-carboxamide hydrochloride]
Abeta 1-x peptide levels reduced in brain cortex ([1]; 0.3 mg/kg oral dose): approximately 28% | Abeta 1-x peptide levels reduced in brain hippocampus ([1]; 0.3 mg/kg oral dose): approximately 31% | Abeta 1-x peptide levels reduced in brain cortex ([1]; 1 mg/kg oral dose): ~42% | Abeta 1-x peptide levels reduced in brain hippocampus ([1]; 1 mg/kg oral dose): ~39% | Abeta 1-x peptide levels reduced in brain cortex ([1]; 3 mg/kg oral dose): ~64% | Abeta 1-x peptide levels reduced in brain hippocampus ([1]; 3 mg/kg oral dose): ~61%

pIC50 [2]: 9.13
Structure (SMILES): NC1=N[C@@]2(c3cccc(NC(=O)c4ncc(F)cc4F)c3)CN(c3ncc(F)cn3)C[C@H]2CS1 [Example 7, N-[3-[(4aR,7aS)-2-Amino-6-(5-fluoropyrimidin-2-yl)-4,4a,5,7-tetrahydropyrrolo[3,4-d][1,3]thiazin-7a-yl]phenyl]-3,5-difluoro-pyridine-2-carboxamide hydrochloride]

Structure (SMILES): N#Cc1ccc(C(=O)Nc2ccc(F)c([C@]34CN(c5ncc(F)cn5)C[C@H]3CSC(N)=N4)c2)nc1 [Example 8, N-[3-[(4aR,7aS)-2-Amino-6-(5-fluoropyrimidin-2-yl)-4,4a,5,7-tetrahydropyrrolo[3,4-d][1,3]thiazin-7a-yl]-4-fluoro-phenyl]-5-cyano-pyridine-2-carboxamide hydrochloride]
pIC50 ([3]; Abeta 1-40 in conditioned media, read-out: PDAPP Neuron A-beta (1-40) ELISA IC50): 9.86 | pIC50 ([3]; Abeta 1-42 in conditioned media, read-out: PDAPP Neuron A-beta (1-42) ELISA IC50): 10.14

— patent US9999624B2, “Combination Alzheimer therapy using anti-N3pGlu Abeta antibodies + a BACE inhibitor” (Eli Lilly and Company, priority 2014, dated 2018)
